Measured values: patent US11339419B2, “Scavenger protein(s) for improved preservation of analyte detection sensor(s) and method(s) of use thereof” (Siemens Healthcare Diagnostics Inc., priority 2017, dated 2022)
Where “and” joins values, the source holds several entries; their conditions need not be identical. Identical values can stand only once.

Tested on: sarcosine oxidase (BBI Solutions)
Test: BBI Solutions Sarcosine Oxidase Enzyme Absorbance with BSA and MIT
Assay type: biochemical
Details: for Sarcosine Oxidase Enzyme Absorbance, replicates 7-11 / Sarcosine Oxidase Enzyme Absorbance, MEAN of 7-11 / Sarcosine Oxidase Enzyme Absorbance, MEAN of 1-5 / Sarcosine Oxidase Enzyme Absorbance, solutions 1-5: 37° C.
[1] = Day 0, 5 mg/mL BSA only, no MIT (100 ppm MIT row)
[2] = Day 0, 25 mg/mL BSA only, no MIT (50 ppm MIT row)
[3] = Day 0, 25 mg/mL BSA only, no MIT (100 ppm MIT row)
[4] = Day 0, 50 mg/mL BSA only, no MIT (50 ppm MIT row)
[5] = Day 0, 50 ppm MIT, 25 mg/mL BSA
[6] = Day 0, 50 ppm MIT, 50 mg/mL BSA
[7] = Day 0, 100 ppm MIT, 5 mg/mL BSA
[8] = Day 0, 100 ppm MIT, 25 mg/mL BSA
[9] = Day 0, 100 ppm MIT, 50 mg/mL BSA
[10] = Day 4, 50 ppm MIT, 25 mg/mL BSA
[11] = Day 4, 50 ppm MIT, 50 mg/mL BSA
[12] = Day 4, 100 ppm MIT, 5 mg/mL BSA
[13] = Day 4, 100 ppm MIT, 25 mg/mL BSA
[14] = Day 4, 100 ppm MIT, 50 mg/mL BSA
[15] = Day 14, 50 ppm MIT, 5 mg/mL BSA
[16] = Day 14, 50 ppm MIT, 25 mg/mL BSA
[17] = Day 14, 50 ppm MIT, 50 mg/mL BSA
[18] = Day 14, 100 ppm MIT, 5 mg/mL BSA
[19] = Day 14, 100 ppm MIT, 25 mg/mL BSA
[20] = Day 14, 100 ppm MIT, 50 mg/mL BSA

Description: Tables 1-4 depict aqueous solutions comprising varying concentrations of BSA (at concentrations of 0 mg/mL, 5 mg/mL, 25 mg/mL, and 50 mg/mL), varying concentrations of MIT (at concentrations of 50 parts per million and 100 parts per million) or Proclin™ 300 (at concentrations of 0.7% and 1.4%) biocides over a particular time period (measurements were taken at days 0, 4, and 14 after exposure of the enzyme(s) to the aqueous solutions) and the associated enzyme absorbance measurements for sarcosine oxidase (commercially offered for sale by BBI Solutions and Toyobo). Absorbance measurements of the sarcosine oxidase enzyme(s) were taken via spectrophotometer for each aqueous solution (represented as columns 1-5 in Tables 1-4—column 6 is a blank), the absorbance being directly proportional to the enzyme activity being measured-which for Tables 1-4 is sarcosine oxidase enzyme activity. Accordingly, the higher the absorbance measurement, the higher the enzyme activity of sarcosine oxidase. Columns 7-11 represent five replicate readings in which the aqueous solution only contains BSA (i.e., there is no biocide(s) present in the aqueous solution). In addition, the mean values, standard deviations, and coefficients of variation are also presented for the enzyme activity/absorbance of each aqueous solution. All measurements were taken at 37° C.
As depicted below in Table 1, sarcosine oxidase (commercially offered for sale by BBI Solutions) enzyme activity is measured against various concentrations of MIT (biocide) and BSA (scavenger protein) over a period of 14 days (with absorbance measurements taken at 0, 4, and 14 days) for five different aqueous solutions (represented as columns 1-5—column 6 is a blank).

## bovine serum albumin [BSA]
Day 0, 5 mg/mL BSA only, no MIT (50 ppm MIT row)
  Sarcosine Oxidase Enzyme Absorbance, replicates 7-11: 1.428
[1]
  Sarcosine Oxidase Enzyme Absorbance, MEAN of 7-11: 1.38
  Sarcosine Oxidase Enzyme Absorbance, replicates 7-11: 1.439 and 1.414 and 1.437 and 1.422
[2]
  Sarcosine Oxidase Enzyme Absorbance, MEAN of 7-11: 1.37
  Sarcosine Oxidase Enzyme Absorbance, replicates 7-11: 1.434
[3]
  Sarcosine Oxidase Enzyme Absorbance, MEAN of 7-11: 1.39
  Sarcosine Oxidase Enzyme Absorbance, replicates 7-11: 1.43 and 1.428 and 1.409 and 1.458
[4]
  Sarcosine Oxidase Enzyme Absorbance, MEAN of 7-11: 1.41
  Sarcosine Oxidase Enzyme Absorbance, replicates 7-11: 1.454
Day 0, 50 mg/mL BSA only, no MIT (100 ppm MIT row)
  Sarcosine Oxidase Enzyme Absorbance, MEAN of 7-11: 1.35
Day 0, 50 ppm MIT vs no MIT, 5 mg/mL BSA
  % Bias: 2.3%
Day 0, 50 ppm MIT vs no MIT, 25 mg/mL BSA
  % Bias: −0.5%
Day 0, 50 ppm MIT vs no MIT, 50 mg/mL BSA
  % Bias: −0.1%
Day 0, 50 ppm MIT, 5 mg/mL BSA
  Sarcosine Oxidase Enzyme Absorbance, MEAN of 1-5: 1.42
  Sarcosine Oxidase Enzyme Absorbance, solutions 1-5: 1.484 and 1.435 and 1.486 and 1.455 and 1.454
[5]
  Sarcosine Oxidase Enzyme Absorbance, MEAN of 1-5: 1.37
  Sarcosine Oxidase Enzyme Absorbance, solutions 1-5: 1.385 and 1.39 and 1.401 and 1.423 and 1.433
[6]
  Sarcosine Oxidase Enzyme Absorbance, MEAN of 1-5: 1.41
  Sarcosine Oxidase Enzyme Absorbance, solutions 1-5: 1.445 and 1.468 and 1.458 and 1.406 and 1.484
Day 0, 100 ppm MIT vs no MIT, 5 mg/mL BSA
  % Bias: −0.3%
Day 0, 100 ppm MIT vs no MIT, 25 mg/mL BSA
  % Bias: 2.0%
Day 0, 100 ppm MIT vs no MIT, 50 mg/mL BSA
  % Bias: 1.9%
[7]
  Sarcosine Oxidase Enzyme Absorbance, MEAN of 1-5: 1.38
  Sarcosine Oxidase Enzyme Absorbance, solutions 1-5: 1.41 and 1.418 and 1.423 and 1.42 and 1.425
[8]
  Sarcosine Oxidase Enzyme Absorbance, MEAN of 1-5: 1.41
  Sarcosine Oxidase Enzyme Absorbance, solutions 1-5: 1.447 and 1.459 and 1.456 and 1.449 and 1.468
[9]
  Sarcosine Oxidase Enzyme Absorbance, MEAN of 1-5: 1.38
  Sarcosine Oxidase Enzyme Absorbance, solutions 1-5: 1.396 and 1.419 and 1.45 and 1.414 and 1.413
Day 4, 5 mg/mL BSA only, no MIT (50 ppm MIT row)
  Sarcosine Oxidase Enzyme Absorbance, MEAN of 7-11: 1.41
Day 4, 5 mg/mL BSA only, no MIT (100 ppm MIT row)
  Sarcosine Oxidase Enzyme Absorbance, MEAN of 7-11: 1.36
Day 4, 25 mg/mL BSA only, no MIT (50 ppm MIT row)
  Sarcosine Oxidase Enzyme Absorbance, MEAN of 7-11: 1.37
Day 4, 25 mg/mL BSA only, no MIT (100 ppm MIT row)
  Sarcosine Oxidase Enzyme Absorbance, MEAN of 7-11: 1.36
Day 4, 50 mg/mL BSA only, no MIT (50 ppm MIT row)
  Sarcosine Oxidase Enzyme Absorbance, MEAN of 7-11: 1.47
Day 4, 50 mg/mL BSA only, no MIT (100 ppm MIT row)
  Sarcosine Oxidase Enzyme Absorbance, MEAN of 7-11: 1.36
Day 4, 50 ppm MIT vs no MIT, 5 mg/mL BSA
  % Bias: 1.4%
Day 4, 50 ppm MIT vs no MIT, 25 mg/mL BSA
  % Bias: 3.0%
Day 4, 50 ppm MIT vs no MIT, 50 mg/mL BSA
  % Bias: −7.2%
Day 4, 50 ppm MIT, 5 mg/mL BSA
  Sarcosine Oxidase Enzyme Absorbance, MEAN of 1-5: 1.43
  Sarcosine Oxidase Enzyme Absorbance, solutions 1-5: 1.47 and 1.446 and 1.456 and 1.467
[10]
  Sarcosine Oxidase Enzyme Absorbance, MEAN of 1-5: 1.41
  Sarcosine Oxidase Enzyme Absorbance, solutions 1-5: 1.446 and 1.431 and 1.432 and 1.448 and 1.434
[11]
  Sarcosine Oxidase Enzyme Absorbance, MEAN of 1-5: 1.37
  Sarcosine Oxidase Enzyme Absorbance, solutions 1-5: 1.429 and 1.415 and 1.37 and 1.398 and 1.381
Day 4, 100 ppm MIT vs no MIT, 5 mg/mL BSA
  % Bias: 1.5%
Day 4, 100 ppm MIT vs no MIT, 25 mg/mL BSA
  % Bias: 1.0%
Day 4, 100 ppm MIT vs no MIT, 50 mg/mL BSA
  % Bias: 1.0%
[12]
  Sarcosine Oxidase Enzyme Absorbance, MEAN of 1-5: 1.38
  Sarcosine Oxidase Enzyme Absorbance, solutions 1-5: 1.404 and 1.416 and 1.435 and 1.42
[13]
  Sarcosine Oxidase Enzyme Absorbance, MEAN of 1-5: 1.37
  Sarcosine Oxidase Enzyme Absorbance, solutions 1-5: 1.42 and 1.392 and 1.415 and 1.383 and 1.4
[14]
  Sarcosine Oxidase Enzyme Absorbance, MEAN of 1-5: 1.38
  Sarcosine Oxidase Enzyme Absorbance, solutions 1-5: 1.397 and 1.396 and 1.413 and 1.425 and 1.412
Day 14, 5 mg/mL BSA only, no MIT (50 ppm MIT row)
  Sarcosine Oxidase Enzyme Absorbance, MEAN of 7-11: 1.39
Day 14, 5 mg/mL BSA only, no MIT (100 ppm MIT row)
  Sarcosine Oxidase Enzyme Absorbance, MEAN of 7-11: 1.42
Day 14, 25 mg/mL BSA only, no MIT (50 ppm MIT row)
  Sarcosine Oxidase Enzyme Absorbance, MEAN of 7-11: 1.38
Day 14, 25 mg/mL BSA only, no MIT (100 ppm MIT row)
  Sarcosine Oxidase Enzyme Absorbance, MEAN of 7-11: 1.40
Day 14, 50 mg/mL BSA only, no MIT (50 ppm MIT row)
  Sarcosine Oxidase Enzyme Absorbance, MEAN of 7-11: 1.37
Day 14, 50 mg/mL BSA only, no MIT (100 ppm MIT row)
  Sarcosine Oxidase Enzyme Absorbance, MEAN of 7-11: 1.44
Day 14, 50 ppm MIT vs no MIT, 5 mg/mL BSA
  % Bias: −1.0%
Day 14, 50 ppm MIT vs no MIT, 25 mg/mL BSA
  % Bias: −0.2%
Day 14, 50 ppm MIT vs no MIT, 50 mg/mL BSA
  % Bias: 1.5%
[15]
  Sarcosine Oxidase Enzyme Absorbance, MEAN of 1-5: 1.37
  Sarcosine Oxidase Enzyme Absorbance, solutions 1-5: 1.413 and 1.372 and 1.41 and 1.423 and 1.437
[16]
  Sarcosine Oxidase Enzyme Absorbance, MEAN of 1-5: 1.38
  Sarcosine Oxidase Enzyme Absorbance, solutions 1-5: 1.413 and 1.41 and 1.422 and 1.427
[17]
  Sarcosine Oxidase Enzyme Absorbance, MEAN of 1-5: 1.39
  Sarcosine Oxidase Enzyme Absorbance, solutions 1-5: 1.434 and 1.444 and 1.427 and 1.431 and 1.432
Day 14, 100 ppm MIT vs no MIT, 5 mg/mL BSA
  % Bias: 0.3%
Day 14, 100 ppm MIT vs no MIT, 25 mg/mL BSA
  % Bias: −0.2%
Day 14, 100 ppm MIT vs no MIT, 50 mg/mL BSA
  % Bias: −0.8%
[18]
  Sarcosine Oxidase Enzyme Absorbance, MEAN of 1-5: 1.43
  Sarcosine Oxidase Enzyme Absorbance, solutions 1-5: 1.479 and 1.506 and 1.389 and 1.39 and 1.577
[19]
  Sarcosine Oxidase Enzyme Absorbance, MEAN of 1-5: 1.40
  Sarcosine Oxidase Enzyme Absorbance, solutions 1-5: 1.422 and 1.404 and 1.428 and 1.458 and 1.477
[20]
  Sarcosine Oxidase Enzyme Absorbance, MEAN of 1-5: 1.43
  Sarcosine Oxidase Enzyme Absorbance, solutions 1-5: 1.442 and 1.477 and 1.456 and 1.492 and 1.478
Days 4 and 14, 5, 25 and 50 mg/mL BSA, with MIT
  absorbance of the sarcosine oxidase enzyme compared to samples containing 0 mg/mL of BSA: increased absorbance
Days 4 and 14, only BSA, no MIT
  sarcosine oxidase absorbance, solutions 7-11: increased (or at least maintained)
